Test systems include UO-31 renal; NCI-H23 lung; UACC-62 melanoma; SF-539 CNS; SNB-19 CNS; IGROV1 ovarian; K-562 leukemia; SK-MEL-2 melanoma; SW-620 colon; NCI-H522 lung.
Assay in all cases: DTP human tumour cell line panel, 48 h

Here are results for nine compounds from PubChem BioAssay (NCI).

Values joined by “and” are separate entries in the source; they are usually repeats but may differ in a detail not shown here. Equal values may be shown once.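 Test compounds were applied to cells in 96-well plates for 48 hours at 5 doses. Here, GI50 denotes the concentration required for 50% inhibition of growth. Definition used: TGI = concentration required for complete inhibition of growth.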 Some results are limits rather than exact numbers.

As usually defined, the TGI is the concentration giving total growth inhibition. The low end stands for more potent growth arrest, the high end for less potent growth arrest. On to `C=CCNC1=C(C(=O)OCC)C(=O)CO1`, for which the TGI in the test on UO-31 renal, in the test with NCI-H23 lung, in the test with UACC-62 melanoma, in the test on SF-539 CNS, in the test on SNB-19 CNS and with IGROV1 ovarian was above 100 µM in each case. The TGI with K-562 leukemia, with SK-MEL-2 melanoma, in the test with SW-620 colon and in the test on NCI-H522 lung was above 100 µM in each case.

What is called GI50 is the concentration giving 50% growth inhibition. As for `CN1CCN(c2ccc(-c3cnc4c(-c5csc6ccccc56)cnn4c3)cc2)CC1`, the GI50 in the test on UO-31 renal was 10.3 µM; with NCI-H23 lung, 6.06 µM; in the test on UACC-62 melanoma it was above 15 µM; in the test with SF-539 CNS, 2.36 µM; in the test with SNB-19 CNS, 9.25 µM; in the test on IGROV1 ovarian, 7.55 µM. In addition, the GI50 in the test on K-562 leukemia was 3.03 µM; in the test with SK-MEL-2 melanoma it was above 15 µM; in the test on SW-620 colon, 3.73 µM; in the test on NCI-H522 lung, 8.15 µM. The TGI was above 15 µM with UO-31 renal; above 15 µM in the test with NCI-H23 lung; above 15 µM in the test with UACC-62 melanoma; 4.62 µM with SF-539 CNS; above 15 µM in the test with SNB-19 CNS; above 15 µM with IGROV1 ovarian. For the same compound, the TGI with K-562 leukemia was above 15 µM; in the test on SK-MEL-2 melanoma, above 15 µM; in the test with SW-620 colon, 10.1 µM; with NCI-H522 lung, above 15 µM.

In the case of `C/C=C(\C)C(=O)O[C@@H]1C(O)[C@H]2OC(COC(=O)CCC(=O)CCCCCC[C@H](CCCCC)O[C@@H]3OC(C)[C@H](OC(C)=O)C(O)[C@H]3O2)[C@H]1OC(=O)/C=C/c1ccccc1` (some centres undefined), the GI50 was below 0.01 µM in the test with UO-31 renal; 0.293 µM in the test with NCI-H23 lung; 0.0176 µM in the test with UACC-62 melanoma; below 0.01 µM in the test on SF-539 CNS; 0.156 µM in the test on SNB-19 CNS; below 0.0163 µM in the test with IGROV1 ovarian. Moreover, the GI50 with K-562 leukemia is below 0.01 µM; with SK-MEL-2 melanoma, 0.322 µM; in the test on SW-620 colon it was below 0.0114 µM; with NCI-H522 lung it was 0.0265 µM. In addition, the TGI in the test on UO-31 renal worked out at 8.34 µM; in the test with NCI-H23 lung, 62.3 µM; in the test with UACC-62 melanoma, 1.01 µM; with SF-539 CNS, 1.96 µM; with SNB-19 CNS, 15.5 µM; with IGROV1 ovarian, 17.9 µM. In addition, the TGI with K-562 leukemia was above 100 µM; in the test on SK-MEL-2 melanoma, 4.27 µM; in the test on SW-620 colon, above 60 µM; with NCI-H522 lung, 2.29 µM.

With `NC(=O)N/N=C(\Cc1nc2ccc(C(=O)c3ccccc3)cc2[nH]c1=O)C(=O)Nc1ccc(Br)cc1`, the concentration for total growth inhibition (TGI) in the test on UO-31 renal, in the test on NCI-H23 lung, in the test on UACC-62 melanoma, with SF-539 CNS, in the test with SNB-19 CNS and in the test on IGROV1 ovarian was above 100 µM throughout. Also, the TGI in the test on K-562 leukemia, with SK-MEL-2 melanoma, in the test with SW-620 colon and with NCI-H522 lung was above 100 µM each time.

Take `CC(=O)O[C@H]1[C@@H]2[C@@H]3[C@@H](C[C@H]1C)[C@@H](C)CO[C@@]1(C)CC/C=C(/C)C[C@@H]2O[C@@H]31`: the TGI in the test with UO-31 renal, with NCI-H23 lung, with UACC-62 melanoma, in the test on SF-539 CNS, with SNB-19 CNS and in the test on IGROV1 ovarian was above 100 µM in each case. The TGI in the test with K-562 leukemia, in the test with SK-MEL-2 melanoma, with SW-620 colon and in the test with NCI-H522 lung was above 100 µM throughout.

Regarding `COc1cc(-c2oc3c(OC)c(OC)cc(O)c3c(=O)c2OC)ccc1O`, the GI50 was 3.88 µM and 8.21 µM with UO-31 renal; 7.38 µM and 35.1 µM in the test on NCI-H23 lung; 2.52 µM and 6.91 µM in the test on SK-MEL-2 melanoma; > 100 µM and 37.8 µM with SW-620 colon. Besides, the TGI was above 100 µM with UO-31 renal; above 100 µM with NCI-H23 lung; above 100 µM in the test with UACC-62 melanoma; > 100 µM and 49.2 µM in the test on SF-539 CNS; above 100 µM with SNB-19 CNS; > 100 µM and 35.5 µM with IGROV1 ovarian. Also, the TGI was above 50 µM with K-562 leukemia; > 100 µM and 32.7 µM in the test on SK-MEL-2 melanoma; above 100 µM with SW-620 colon; 31.3 µM and > 50 µM with NCI-H522 lung.

As to `O=C1C(Cl)=C(Nc2ccc3cn[nH]c3c2)C(=O)c2ccccc21`, the GI50 with UO-31 renal is 1.25 µM; in the test with NCI-H23 lung it was 0.413 µM; in the test with UACC-62 melanoma it was 1.5 µM; with SF-539 CNS, 1.81 µM; in the test with SNB-19 CNS, 1.66 µM; in the test with IGROV1 ovarian, 0.198 µM. Also, the GI50 in the test with K-562 leukemia was 0.526 µM; with SK-MEL-2 melanoma, 1.71 µM; in the test on SW-620 colon it was 1.36 µM; with NCI-H522 lung, 1.55 µM. Also, the TGI was 2.51 µM in the test with UO-31 renal; 1.81 µM with NCI-H23 lung; 2.93 µM with UACC-62 melanoma; 3.2 µM with SF-539 CNS; 3.33 µM in the test on SNB-19 CNS; 2.02 µM in the test on IGROV1 ovarian. For the same compound, the TGI with K-562 leukemia was 2.06 µM; with SK-MEL-2 melanoma, 3.54 µM; in the test on SW-620 colon it was 2.95 µM; with NCI-H522 lung, 2.94 µM.

For the compound `Cc1cc(=O)oc2cc(OC(=O)Nc3ccc(Cl)c(Cl)c3)ccc12`, the TGI in the test with UO-31 renal was 72.7 µM; with NCI-H23 lung, 53 µM; in the test with UACC-62 melanoma, 35.1 µM; with SF-539 CNS, 38.5 µM; in the test on SNB-19 CNS it was 77.2 µM; in the test on IGROV1 ovarian it was 60.5 µM. Further, the TGI in the test on K-562 leukemia came out at 28.2 µM; in the test with SK-MEL-2 melanoma, 56.1 µM; in the test with SW-620 colon it was 48.1 µM; with NCI-H522 lung, 54.4 µM.

Turning to `O=C1c2ccccc2S(=O)(=O)N1CSC(=S)N1CCCC1`, the GI50 with UO-31 renal was above 100 µM; in the test on NCI-H23 lung it was above 78.6 µM; with UACC-62 melanoma it was above 75.7 µM; in the test with SF-539 CNS, above 100 µM; with SNB-19 CNS, above 100 µM; in the test with IGROV1 ovarian it was 19 µM. The GI50 is 4.02 µM in the test with K-562 leukemia, above 100 µM in the test with SK-MEL-2 melanoma, above 100 µM with SW-620 colon and 12.1 µM with NCI-H522 lung. Further, the TGI in the test with UO-31 renal, with NCI-H23 lung, in the test on UACC-62 melanoma, in the test with SF-539 CNS, in the test with SNB-19 CNS and with IGROV1 ovarian was above 100 µM in each case. In addition, the TGI with K-562 leukemia, with SK-MEL-2 melanoma, in the test on SW-620 colon and in the test on NCI-H522 lung was above 100 µM each time.
